Laboratory results taken from US6576675B1, “Z-styryl sulfone anticancer agents” (Temple University - Of the Commonwealth System of Higher …, priority 1999, dated 2003).

The compounds below were run on Breast cell lines: MCF-7, BT-20, 435 (assay: Viability assay (Trypan blue exclusion), breast tumor cell lines). Conditions: 2.5 mM, 72 hours, read-out: % Death, tumor cell type Breast.
Assay type: cell-based
Method: (§1) The effect of the Z-styryl sulfones on normal fibroblasts and on tumor cells of breast, prostate and ovarian origin was examined utilizing the following cell lines: breast tumor cell lines: MCF-7, BT-20 and 435; prostate tumor cell lines LnCaP and DU-145; and ovarian tumor cell lines OVCAR and SKOV3. NIH/3T3 and HFL cells, which are normal murine and human fibroblasts, respectively, were also tested. LnCap is an androgen-dependent prostate tumor cell line. MCF-7 is an estrogen-responsive breast tumor cell line, while BT-20 and 435 are estrogen-unresponsive breast tumor cell lines. MCF-7, BT-20 and 435 were grown in Dulbecco's modified Eagle's medium (DMEM) containing 10% fetal bovine serum supplemented with penicillin and streptomycin. LnCaP and Du145 were cultured in RPMI with 10% fetal bovine serum containing penicillin and streptomycin. NIH3T3 and HFL cells were grown in DMEM containing 10% calf serum supplemented with penicillin and streptomycin. All cell cultures were maintained at 37° C. in a humidified atmosphere of 5% CO2.
(§2) Cells were treated with test compound at 2.5 mM concentration and cell viability was determined after 72 hours by the Trypan blue exclusion method.
(§3) Activity for each compound is reported as a range of cell induced death (% Death) with the lowest activity in the range of 10-20% and the highest being above 75%.
In the case of `O=S(=O)(/C=C\c1ccccc1)Cc1ccccc1` [Example 1, Z-styryl Benzylsulfone], the cytotoxicity at 2500 µM is reported as 10 to 20%.
Work on `O=S(=O)(/C=C\c1ccccc1)Cc1ccc(Cl)cc1` [Example 2, Z-styryl 4-Chlorobenzylsulfone] yielded a cytotoxicity at 2500 µM of 20 to 25%.
In the case of `O=S(=O)(/C=C\c1ccccc1)Cc1ccccc1Cl` [Example 3, Z-styryl 2-Chlorobenzylsulfone], the cytotoxicity at 2500 µM is reported as 20 to 25%.
`O=S(=O)(/C=C\c1ccccc1)Cc1ccc(F)cc1` [Example 4, Z-styryl 4-Fluorobenzylsulfone] showed a cytotoxicity at 2500 µM of 20 to 25%.
`O=S(=O)(/C=C\c1ccc(Cl)cc1)Cc1ccccc1` [Example 5, Z-4-Chlorostyryl Benzylsulfone] gave a cytotoxicity at 2500 µM of 20 to 25%.
`O=S(=O)(/C=C\c1ccc(Cl)cc1)Cc1ccc(Cl)cc1` [Example 6, Z-4-Chlorostyryl 4-Chlorobenzylsulfone] gave a cytotoxicity at 2500 µM of 60 to 70%.
With `O=S(=O)(/C=C\c1ccc(Cl)cc1)Cc1ccccc1Cl` [Example 7, Z-4-Chlorostyryl 2-Chlorobenzylsulfone] the cytotoxicity at 2500 µM was 20 to 25%.
With `O=S(=O)(/C=C\c1ccc(Cl)cc1)Cc1ccc(F)cc1` [Example 8, Z-4-Chlorostyryl 4-Fluorobenzylsulfone] the cytotoxicity at 2500 µM was greater than 75%.
Compound `O=S(=O)(/C=C\c1ccc(F)cc1)Cc1ccccc1` [Example 9, Z-4-Fluorostyryl Benzylsulfone] has a cytotoxicity at 2500 µM of 20 to 25%.
`O=S(=O)(/C=C\c1ccc(F)cc1)Cc1ccc(Cl)cc1` [Example 10, Z-4-Fluorostyryl 4-Chlorobenzylsulfone] was tested, and the cytotoxicity at 2500 µM was 60 to 70%.

What follows are compounds tested on Prostate cell lines: LnCaP, DU-145 (assay: Viability assay (Trypan blue exclusion), prostate tumor cell lines). Conditions: 2.5 mM, 72 hours, read-out: % Death, tumor cell type Prostate.
Assay type: cell-based
Method: as §1, §2, §3
`O=S(=O)(/C=C\c1ccccc1)Cc1ccccc1` [Example 1, Z-styryl Benzylsulfone] showed a cytotoxicity at 2500 µM of 10 to 20%.
`O=S(=O)(/C=C\c1ccccc1)Cc1ccc(Cl)cc1` [Example 2, Z-styryl 4-Chlorobenzylsulfone] gave a cytotoxicity at 2500 µM of 20 to 25%.
`O=S(=O)(/C=C\c1ccccc1)Cc1ccccc1Cl` [Example 3, Z-styryl 2-Chlorobenzylsulfone] showed a cytotoxicity at 2500 µM of 20 to 25%.
`O=S(=O)(/C=C\c1ccccc1)Cc1ccc(F)cc1` [Example 4, Z-styryl 4-Fluorobenzylsulfone] showed a cytotoxicity at 2500 µM of 20 to 25%.
`O=S(=O)(/C=C\c1ccc(Cl)cc1)Cc1ccccc1` [Example 5, Z-4-Chlorostyryl Benzylsulfone] showed a cytotoxicity at 2500 µM of 20 to 25%.
Compound `O=S(=O)(/C=C\c1ccc(Cl)cc1)Cc1ccc(Cl)cc1` [Example 6, Z-4-Chlorostyryl 4-Chlorobenzylsulfone] has a cytotoxicity at 2500 µM of 60 to 70%.
With `O=S(=O)(/C=C\c1ccc(Cl)cc1)Cc1ccccc1Cl` [Example 7, Z-4-Chlorostyryl 2-Chlorobenzylsulfone] the cytotoxicity at 2500 µM was 20 to 25%.
Work on `O=S(=O)(/C=C\c1ccc(Cl)cc1)Cc1ccc(F)cc1` [Example 8, Z-4-Chlorostyryl 4-Fluorobenzylsulfone] yielded a cytotoxicity at 2500 µM greater than 75%.
`O=S(=O)(/C=C\c1ccc(F)cc1)Cc1ccccc1` [Example 9, Z-4-Fluorostyryl Benzylsulfone] showed a cytotoxicity at 2500 µM of 20 to 25%.
In the case of `O=S(=O)(/C=C\c1ccc(F)cc1)Cc1ccc(Cl)cc1` [Example 10, Z-4-Fluorostyryl 4-Chlorobenzylsulfone], the cytotoxicity at 2500 µM is reported as 60 to 70%.

These compounds were tested on Ovarian cell lines: OVCAR, SKOV3 (assay: Viability assay (Trypan blue exclusion), ovarian tumor cell lines). Conditions: Homo sapiens, 2.5 mM, 72 hours, read-out: % Death, tumor cell type Ovarian.
Assay type: cell-based
Method: as §1, §2, §3
With `O=S(=O)(/C=C\c1ccccc1)Cc1ccccc1` [Example 1, Z-styryl Benzylsulfone] the cytotoxicity at 2500 µM was 10 to 20%.
`O=S(=O)(/C=C\c1ccccc1)Cc1ccc(Cl)cc1` [Example 2, Z-styryl 4-Chlorobenzylsulfone] showed a cytotoxicity at 2500 µM of 20 to 25%.
In the case of `O=S(=O)(/C=C\c1ccccc1)Cc1ccccc1Cl` [Example 3, Z-styryl 2-Chlorobenzylsulfone], the cytotoxicity at 2500 µM is reported as 20 to 25%.
With `O=S(=O)(/C=C\c1ccccc1)Cc1ccc(F)cc1` [Example 4, Z-styryl 4-Fluorobenzylsulfone] the cytotoxicity at 2500 µM was 20 to 25%.
`O=S(=O)(/C=C\c1ccc(Cl)cc1)Cc1ccccc1` [Example 5, Z-4-Chlorostyryl Benzylsulfone] showed a cytotoxicity at 2500 µM of 20 to 25%.
Compound `O=S(=O)(/C=C\c1ccc(Cl)cc1)Cc1ccc(Cl)cc1` [Example 6, Z-4-Chlorostyryl 4-Chlorobenzylsulfone] has a cytotoxicity at 2500 µM of 60 to 70%.
`O=S(=O)(/C=C\c1ccc(Cl)cc1)Cc1ccccc1Cl` [Example 7, Z-4-Chlorostyryl 2-Chlorobenzylsulfone] was tested, and the cytotoxicity at 2500 µM was 20 to 25%.
Compound `O=S(=O)(/C=C\c1ccc(Cl)cc1)Cc1ccc(F)cc1` [Example 8, Z-4-Chlorostyryl 4-Fluorobenzylsulfone] has a cytotoxicity at 2500 µM greater than 75%.
For `O=S(=O)(/C=C\c1ccc(F)cc1)Cc1ccccc1` [Example 9, Z-4-Fluorostyryl Benzylsulfone], the cytotoxicity at 2500 µM was 20 to 25%.
In the case of `O=S(=O)(/C=C\c1ccc(F)cc1)Cc1ccc(Cl)cc1` [Example 10, Z-4-Fluorostyryl 4-Chlorobenzylsulfone], the cytotoxicity at 2500 µM is reported as 60 to 70%.

What follows are compounds tested on Lung cell lines: N417, H157 (assay: Viability assay (Trypan blue exclusion), lung tumor cell lines). Conditions: 2.5 mM, 72 hours, read-out: % Death, tumor cell type Lung.
Assay type: cell-based
Method: as §2, §3
(§4) The procedure of Example 22 was followed for certain of the (Z)-benzylsulfones, substituting the following cancer cell lines: lung, N417 and H157; renal, CAKI-1 and CAKI-2; glioma, U87 and SW1088.
With `O=S(=O)(/C=C\c1ccc(Cl)cc1)Cc1ccccc1` [Example 5, Z-4-Chlorostyryl Benzylsulfone] the cytotoxicity at 2500 µM was 20 to 25%.
In the case of `O=S(=O)(/C=C\c1ccc(Cl)cc1)Cc1ccc(Cl)cc1` [Example 6, Z-4-Chlorostyryl 4-Chlorobenzylsulfone], the cytotoxicity at 2500 µM is reported as 60 to 70%.
In the case of `O=S(=O)(/C=C\c1ccc(Cl)cc1)Cc1ccccc1Cl` [Example 7, Z-4-Chlorostyryl 2-Chlorobenzylsulfone], the cytotoxicity at 2500 µM is reported as 20 to 25%.
Work on `O=S(=O)(/C=C\c1ccc(Cl)cc1)Cc1ccc(F)cc1` [Example 8, Z-4-Chlorostyryl 4-Fluorobenzylsulfone] yielded a cytotoxicity at 2500 µM greater than 75%.
Work on `O=S(=O)(/C=C\c1ccc(F)cc1)Cc1ccc(Cl)cc1` [Example 10, Z-4-Fluorostyryl 4-Chlorobenzylsulfone] yielded a cytotoxicity at 2500 µM of 60 to 70%.

The compounds below were run on Renal cell lines: CAKI-1, CAKI-2 (assay: Viability assay (Trypan blue exclusion), renal tumor cell lines). Conditions: 2.5 mM, 72 hours, read-out: % Death, tumor cell type Renal.
Assay type: cell-based
Method: as §2, §3, §4
`O=S(=O)(/C=C\c1ccc(Cl)cc1)Cc1ccccc1` [Example 5, Z-4-Chlorostyryl Benzylsulfone] showed a cytotoxicity at 2500 µM of 20 to 25%.
`O=S(=O)(/C=C\c1ccc(Cl)cc1)Cc1ccc(Cl)cc1` [Example 6, Z-4-Chlorostyryl 4-Chlorobenzylsulfone] was tested, and the cytotoxicity at 2500 µM was 60 to 70%.
`O=S(=O)(/C=C\c1ccc(Cl)cc1)Cc1ccccc1Cl` [Example 7, Z-4-Chlorostyryl 2-Chlorobenzylsulfone] was tested, and the cytotoxicity at 2500 µM was 20 to 25%.
`O=S(=O)(/C=C\c1ccc(Cl)cc1)Cc1ccc(F)cc1` [Example 8, Z-4-Chlorostyryl 4-Fluorobenzylsulfone] showed a cytotoxicity at 2500 µM greater than 75%.
`O=S(=O)(/C=C\c1ccc(F)cc1)Cc1ccc(Cl)cc1` [Example 10, Z-4-Fluorostyryl 4-Chlorobenzylsulfone] was tested, and the cytotoxicity at 2500 µM was 60 to 70%.

The compounds below were run on Glioma cell lines: U87, SW1088 (assay: Viability assay (Trypan blue exclusion), glioma cell lines). Conditions: Homo sapiens, 2.5 mM, 72 hours, read-out: % Death, tumor cell type Glioma.
Assay type: cell-based
Method: as §2, §3, §4
`O=S(=O)(/C=C\c1ccc(Cl)cc1)Cc1ccccc1` [Example 5, Z-4-Chlorostyryl Benzylsulfone] gave a cytotoxicity at 2500 µM of 20 to 25%.
Compound `O=S(=O)(/C=C\c1ccc(Cl)cc1)Cc1ccc(Cl)cc1` [Example 6, Z-4-Chlorostyryl 4-Chlorobenzylsulfone] has a cytotoxicity at 2500 µM of 60 to 70%.
`O=S(=O)(/C=C\c1ccc(Cl)cc1)Cc1ccccc1Cl` [Example 7, Z-4-Chlorostyryl 2-Chlorobenzylsulfone] was tested, and the cytotoxicity at 2500 µM was 20 to 25%.
With `O=S(=O)(/C=C\c1ccc(Cl)cc1)Cc1ccc(F)cc1` [Example 8, Z-4-Chlorostyryl 4-Fluorobenzylsulfone] the cytotoxicity at 2500 µM was greater than 75%.
Work on `O=S(=O)(/C=C\c1ccc(F)cc1)Cc1ccc(Cl)cc1` [Example 10, Z-4-Fluorostyryl 4-Chlorobenzylsulfone] yielded a cytotoxicity at 2500 µM of 60 to 70%.
